Experimental data published in article PMC11202169, “A Novel Fluorescence-Based Microplate Assay for High-Throughput Screening of hSULT1As Inhibitors” (Biosensors, 2024).
Values joined by “and” are separate entries in the source; they are usually repeats but may differ in a detail not shown here. Identical values can stand only once.

How the values were obtained:
Format in all cases: biochemical
hSULT1A3 = target: T1, hSULT1A3 (Homo sapiens, UniProt P0DMM9); assay: Fluorescence-based microplate inhibition assay, hSULT1A3-catalyzed HN-241 4-O-sulfation; conditions: test compound 10 μM, HN-241 10 μM, 15 min; for activity at 10 µM: read-out: Residue activity (%) hSULT1A3
T1 construct: 6-histidine tag (N); TEV site (N); made in house; host or cells: Escherichia coli BL21 (DE3), pET29a(+)

hSULT1A2 = target: T2, hSULT1A2 (Homo sapiens, UniProt P50226); assay: Fluorescence-based microplate inhibition assay, hSULT1A2-catalyzed HN-241 4-O-sulfation; conditions: for Residue activity (%) hSULT1A2 / remaining activity at 10 µM: test compound 10 μM, HN-241 5 μM, 15 min; for remaining activity at 10 µM: 0.25 h, read-out: Residue activity (%) hSULT1A2
T2 construct: 6-histidine tag (N); TEV site (N); made in house; host or cells: Escherichia coli BL21 (DE3), pET29a(+)

hSULT1A1 = target: T3, hSULT1A1 (Homo sapiens, UniProt P50225); assay: Fluorescence-based microplate inhibition assay, hSULT1A1-catalyzed HN-241 4-O-sulfation; conditions: test compound 1 μM, HN-241 1 μM, 15 min; for activity at 1 µM: read-out: Residue activity (%) hSULT1A1;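 on all read-outs here: reaction started with 200 µM PAPS at 37 °C, fluorescence read continuously (Ex 350 nm, Em 450 nm), activity expressed relative to DMSO-only control without inhibitor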
T3 construct: 6-histidine tag (N); TEV site (N); made in house; host or cells: Escherichia coli BL21 (DE3), pET29a(+)
T3 sequence (P50225 whole entry): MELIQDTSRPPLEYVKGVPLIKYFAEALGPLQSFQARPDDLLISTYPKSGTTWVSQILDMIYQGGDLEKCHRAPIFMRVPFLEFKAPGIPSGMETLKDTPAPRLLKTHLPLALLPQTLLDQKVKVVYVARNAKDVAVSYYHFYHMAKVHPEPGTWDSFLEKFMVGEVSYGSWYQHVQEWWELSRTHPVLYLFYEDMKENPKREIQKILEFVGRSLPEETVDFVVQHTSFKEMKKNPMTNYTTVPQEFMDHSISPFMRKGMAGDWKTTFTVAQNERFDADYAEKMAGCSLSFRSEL

T1 sequence (P0DMM9 whole entry): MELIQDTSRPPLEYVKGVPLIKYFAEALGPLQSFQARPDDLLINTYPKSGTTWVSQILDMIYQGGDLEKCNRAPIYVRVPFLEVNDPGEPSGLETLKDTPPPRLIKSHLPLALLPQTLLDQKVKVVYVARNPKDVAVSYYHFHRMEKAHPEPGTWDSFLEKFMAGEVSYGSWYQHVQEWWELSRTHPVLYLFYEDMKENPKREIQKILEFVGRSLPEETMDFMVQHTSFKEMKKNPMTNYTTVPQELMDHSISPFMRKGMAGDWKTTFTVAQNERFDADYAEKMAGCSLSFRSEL
T2 sequence (P50226 whole entry): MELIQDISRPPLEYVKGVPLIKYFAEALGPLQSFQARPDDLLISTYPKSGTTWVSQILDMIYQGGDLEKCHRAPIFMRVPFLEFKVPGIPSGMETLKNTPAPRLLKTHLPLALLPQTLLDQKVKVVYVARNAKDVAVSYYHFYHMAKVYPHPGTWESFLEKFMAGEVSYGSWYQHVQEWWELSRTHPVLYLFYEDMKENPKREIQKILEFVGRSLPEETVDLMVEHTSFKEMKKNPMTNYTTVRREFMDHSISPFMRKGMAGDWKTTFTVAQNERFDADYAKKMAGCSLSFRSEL

Compound	Residue activity (%) hSULT1A3 (hSULT1A3)	Residue activity (%) hSULT1A2 (hSULT1A2)	Residue activity (%) hSULT1A1 (hSULT1A1)	activity at 10 µM (hSULT1A3) [%]	remaining activity at 10 µM (hSULT1A2) [%]	activity at 1 µM (hSULT1A1) [%]	IC50 (hSULT1A2; hSULT1A2-catalyzed HN-241 4-O-sulfation) [nM]
O=C1C=CC(=O)c2cc3ccccc3cc21 [1,4-Anthracenedione]	94.23%	1.06%	29.15%	–	–	–	–
COc1cc2c(c(O)c1OC)C(=O)c1c(cc(C)c(O)c1OC)C2=O [1,7-Dihydroxy-2,3,8-trimethoxy-6-methylanthracene-9,10-dione]	61.63%	0.20%	0.00%	–	–	–	–
C[C@]12CC[C@H](O)C[C@@]1(O)CC[C@@H]1[C@@H]2CC[C@]2(C)[C@@H](c3ccc(=O)oc3)CC[C@]12O [3β,5,14-Trihydroxy-5β-bufa-20,22-dienolide]	114.49%	109.91%	121.35%	–	–	–	–
COc1ccc(/C=C/C(=O)c2ccccc2)cc1 [4-Methoxychalcone]	–	75.95%	78.44%	–	–	–	–
O=c1cc(-c2ccccc2)oc2ccc(O)c(O)c12 [5,6-Dihydroxy-2-phenylchromen-4-one]	68.42%	8.07%	18.14%	–	–	–	–
COc1c2occc2cc2ccc(=O)oc12 [8-Methoxypsoralen]	–	–	–	119	110	107	–
CC(C)=CCC[C@@](C)(O)[C@H]1CC[C@]2(C)[C@@H]1[C@H](O)C[C@@H]1[C@@]3(C)CC[C@H](O)C(C)(C)[C@@H]3[C@@H](O[C@@H]3O[C@H](CO)[C@@H](O)[C@H](O)[C@H]3O[C@@H]3O[C@@H](C)[C@H](O)[C@@H](O)[C@H]3O)C[C@]12C [20(R)-Ginsenoside Rg2]	122.28%	104.32%	104.07%	–	–	–	–
CC(C)=CCC[C@@](C)(O)[C@H]1CC[C@]2(C)[C@@H]1[C@H](O)C[C@@H]1[C@@]3(C)CC[C@H](O[C@@H]4O[C@H](CO)[C@@H](O)[C@H](O)[C@H]4O)C(C)(C)[C@@H]3CC[C@]12C [20(R)-Ginsenoside Rh2]	116.23%	114.69%	98.01%	–	–	–	–
CC(C)=CCC[C@@](C)(O)[C@H]1CC[C@]2(C)[C@@H]1[C@H](O)C[C@@H]1[C@@]3(C)CC[C@H](O)C(C)(C)[C@@H]3[C@@H](O[C@@H]3O[C@H](CO)[C@@H](O)[C@H](O)[C@H]3O[C@@H]3OC[C@@H](O)[C@H](O)[C@H]3O)C[C@]12C [20(R)-Notoginsenoside R2]	100.25%	109.60%	110.54%	–	–	–	–
CC(C)=CCC[C@](C)(O)[C@H]1CC[C@]2(C)[C@@H]1[C@H](O)C[C@@H]1[C@@]3(C)CC[C@H](O[C@@H]4O[C@H](CO)[C@@H](O)[C@H](O)[C@H]4O)C(C)(C)[C@@H]3CC[C@]12C [20(S)-Ginsenoside Rh2]	105.44%	110.74%	85.94%	–	–	–	–
CC(C)=CCC[C@@](C)(O)[C@H]1CC[C@]2(C)[C@@H]1[C@H](O)C[C@@H]1[C@@]3(C)CC[C@H](O)C(C)(C)[C@@H]3CC[C@]12C [(20R)-Protopanaxdiol]	110.20% and 105.48%	97.81% and 101.25%	99.25% and 99.62%	–	–	–	–
CC(C)=CCC[C@](C)(O)[C@H]1CC[C@]2(C)[C@@H]1[C@H](O)C[C@@H]1[C@@]3(C)CC[C@H](O)C(C)(C)[C@@H]3CC[C@]12C [(20S)-Protopanaxdiol]	81.62%	95.73%	99.75%	–	–	–	–
Oc1cc(O)c2c(c1)O[C@@H](c1ccc(O)c(O)c1)[C@H](O)C2 [(-)-Catechin]	–	–	–	46.8	101	41.4	–
COc1ccc(-c2cc(=O)c3c(O)cc(O)cc3o2)cc1 [Acacetin]	–	–	–	58.1	0.47	0.38	–
O=C(/C=C/C=C/c1ccccc1)CCc1ccccc1 [Alnustone]	111.42%	80.60%	74.39%	–	–	–	–
O=C1c2cccc(O)c2C(=O)c2c(O)cc(CO)cc21 [Aloeemodin]	–	–	–	61.3	0	0.21	118 ± 7.2
COc1cc(O)cc2c1C(=O)C[C@@H](c1ccccc1)O2 [Alpinetin]	–	–	–	115	49.5	69.8	–
O=C1CCC[C@@H]2[C@H]3CCC[N@+]4([O-])CCC[C@@H](CN12)[C@@H]34 [Ammothamnine]	100.34%	96.56%	99.18%	–	–	–	–
